Reference: patent publication US20090117177A1, “Echogenic microbubbles and microemulsions for ultrasound-enhanced nanoparticle-mediated delivery of agents” (priority 2005, published 2009)
≈ marks a conversion by molar mass, not a printed value.

What was measured:
colon cancer HCT116 = experiment: Sensitivity of HCT116 to DOX; assay type: cell-based, human
[1] = tested on: HCT116 colon cancer tumors; experiment: HCT116 tumor growth rates; assay type: in vivo, male nu/nu mice; conditions: intravenous injection, DOX 3 mg/kg
Protocol: Tumors: HCT116 colon cancer tumors were inoculated subcutaneously to the right flanks of male nu/nu mice. (See, FIGS. 24 and 25). In contrast to A2780 tumors, this tumor is characterized as being poorly vascularized (See, FIG. 24).
(§1) DOX-loaded micelles were injected either intravenously (i.v.) or intratumorally (i.t.) at a DOX dosage of 3 mg/kg (growth rate studies) or 6 mg/kg (biodistribution studies).
Tumor growth rates: Animals were randomly assigned to experimental and control groups, comprising five animals each. Intravenous treatment was initiated when tumor volume reached 50-100 mm^3. Intratumoral treatment was initiated when tumor volume reached 150-300 mm^3. A total of four injections were delivered twice a week for two weeks. For intratumoral injections, four injections of 25 μl drug solution each were made into four sites of a tumor.

[2] = tested on: HCT116 colon cancer tumors; experiment: HCT116 biodistribution, DOX uptake by cells of organs by flow cytometry; assay type: in vivo, male nu/nu mice
Protocol: as §1
Biodistribution studies: DOX uptake by the cells of various organs was measured by flow cytometry. Mice were intratumorally injected with either free (i.e., PBS-dissolved) DOX or micelle-encapsulated DOX. Ten hours after injection of the composition, mice were sacrificed and tumors and various organs were excised and digested in trypsin.

[3] = ten hours after intratumoral injection

COc1cccc2c1C(=O)c1c(O)c3c(c(O)c1C2=O)C[C@@](O)(C(=O)CO)C[C@@H]3O[C@H]1C[C@H](N)[C@H](O)[C@H](C)O1 [DOX, doxorubicin]
IC50 (colon cancer HCT116): 1.5 µg/mL (≈ 2.76 µM)
tumor response [1]: high resistance to chemotherapy
DOX internalization by tumor cells ([2]; ten hours after i.v. injection): did not deliver drug to tumor cells
DOX in spleen cells [2, 3]: slightly higher
DOX uptake by heart cells [2, 3]: significant uptake
